Reference: US20130065965A1, “DI(4-CHLORO-PHENYLDIGUANIDO) DERIVATIVE WHICH IS FREE OF POTENTIAL GENOTOXICITY AND A PROCESS FOR REDUCING THE RESIDUAL AMOUNT OF P-CHLOROANILINE IN SAID DI(4-CHLORO-PHENYLDIGUANIDO) DERIVATIVE” (MEDICHEM S.A., priority 2009, published 2013)
Read-outs that look alike come from different tables or passages of the source.

Tests used:
[1] = type: physicochemical; conditions: for p-chloroaniline (ppm, HPLC method 1): methanol:acetic acid 8:1 (v/v), 40° C.; for p-chloroaniline (ppm, HPLC method 1), Average: methanol:acetic acid 8:1, 40° C.
Description: HPLCs were acquired on a Waters Alliance 2695 LC system. Column: Kromasil C18, 5 μm, 4.6×250 mm. Flow rate: 1 mL/min. Detector: UV, 254 nm. Mobile phase A: (33:9.5:57.5; v/v/v) 1-octanesulfonic acid sodium salt solution/glacial acetic acid/methanol. The 1-octanesulfonic acid sodium salt solution was prepared dissolving 1.6 g of 1-octanesulfonic acid sodium salt in 330 ml of water and adding 95 ml of glacial acetic acid and 575 ml of methanol. Mobile phase B: methanol. Gradient: 100% A (0-20 min)-85% A (40-65 min)-100% A (70-80 min). Temperature: 30° C. Sample: 10 mg/mL in mobile phase A. Injection volume: 10 μL.
Limit of detection (LOD): 3 ppm of p-chloroaniline.
Two 100 mg aliquots of a sample of chlorhexidine free of potential genotoxicity (Replicates A and B), having a content of p-chloroaniline below 40-50 ppm, a content of each of compounds of Markush formula (IV) (i.e. impurities B-G) below 0.15%, and a total impurities content below 1.5%, as measured by HPLC method 1, were dissolved in 1 mL of a mixture of methanol and acetic acid 8:1 (v/v), and each solution was stored in 5 different closed glass vials at 40° C. These vials were opened after 1, 2, 4, 14, and 25 days of storage, respectively, and the content of p-chloroaniline was measured (HPLC method 1). A linear regression line was calculated from the data obtained in Table 1 (y=2170x-356, R^2=0.991, where “y” represents the measured content of p-chloro aniline in ppm units and “x” represents the degradation time in day units; See FIG. 1).
Three 100 mg aliquots of a sample of chlorhexidine (Replicates C, D and E), having a content of p-chloroaniline of less than 40-50 ppm, a content of each of compounds of Markush formula (IV) (i.e. impurities B-G) higher than 0.15%, and a total impurities content below 2.5-3.0%, as measured by HPLC method 1, were dissolved in 1 mL of a mixture of methanol and acetic acid 8:1 (v/v), and each solution was stored in 2 different closed glass vials at 40° C. These vials were opened after 12 and 19 days of storage, respectively, and the content of p-chloroaniline was measured (HPLC method 1).

[2] = Stability study of aqueous solutions of chlorhexidine digluconate (p-chloroaniline by colorimetric method, European Pharmacopoeia 6.0); type: physicochemical; conditions: 20% aqueous solution; for p-chloroaniline (ppm, Colorimetry), 3 months: closed vial, protected from light
Description: In the U.S. Pharmacopoeia (First Supplement to the USP 33-NF 28 Reissue, USP Monographs: Chlorhexidine Gluconate Solution) it is described that the digluconate salt of chlorhexidine in aqueous solution should be preserved in tight containers, protected from light, and at controlled room temperature (i.e. about 25° C.). In this regard, the present inventors have observed that a 20% (w/v) aqueous solution of the chlorhexidine digluconate of the invention which is free of potential genotoxicity (i.e. having a content of p-chloroaniline lower than 40-50 ppm, with respect to the chlorhexidine base) can become moderately potentially genotoxic (i.e. showing a content of p-chloroaniline dramatically close to higher than 40-50 ppm) after 3 months of storage at 25° C., and highly potentially genotoxic (i.e. showing a content of p-chloroaniline much higher than 40-50 ppm) after 3 months of storage at 40° C. […] Conversely, when storing the aqueous solution of chlorhexidine digluconate of the invention at 15° C., the free-genotoxic stability (i.e. a content of p-chloroaniline lower than 40-50 ppm) is kept at low values for at least 3 months (See Example 12).
Two samples corresponding to a 20% (v/w) aqueous solution of chlorhexidine digluconate which was prepared from the chlorhexidine of Example 10, were stored in a closed vial, under different temperature conditions (i.e. 15° C., 25° C., and 40° C.) for 3 months in a closed chamber protected from light. The potentially free genotoxicity stability of the samples (i.e. the presence of p-chloroaniline) was measured by the colorimetric method described for measuring p-chloroaniline in chlorhexidine digluconate solution in European Pharmacopoeia 6.0 (page 1501).

[3] = 1 day of storage, sample with impurities B-G below 0.15%, 0.54% total impurities
[4] = 2 days of storage, sample with impurities B-G below 0.15%, 0.54% total impurities
[5] = 4 days of storage, sample with impurities B-G below 0.15%, 0.54% total impurities
[6] = 14 days of storage, sample with impurities B-G below 0.15%, 0.54% total impurities
[7] = 25 days of storage, sample with impurities B-G below 0.15%, 0.54% total impurities
[8] = 12 days of storage, sample with impurities B-G higher than 0.15%, 2.64% total impurities
[9] = 19 days of storage, sample with impurities B-G higher than 0.15%, 2.64% total impurities

N=C(NCCCCCCNC(=N)NC(=N)Nc1ccc(Cl)cc1)NC(=N)Nc1ccc(Cl)cc1 [Replicate A]
p-chloroaniline (ppm, HPLC method 1) [1, 3]: 1,556 ppm | p-chloroaniline (ppm, HPLC method 1) [1, 4]: 3,357 ppm | p-chloroaniline (ppm, HPLC method 1) [1, 5]: 6,284 ppm | p-chloroaniline (ppm, HPLC method 1) [1, 6]: 33,753 ppm | p-chloroaniline (ppm, HPLC method 1) [1, 7]: 52,561 ppm

N=C(NCCCCCCNC(=N)NC(=N)Nc1ccc(Cl)cc1)NC(=N)Nc1ccc(Cl)cc1 [Replicate B]
p-chloroaniline (ppm, HPLC method 1) [1, 3]: 1,925 ppm | p-chloroaniline (ppm, HPLC method 1) [1, 4]: 3,609 ppm | p-chloroaniline (ppm, HPLC method 1) [1, 5]: 7,819 ppm | p-chloroaniline (ppm, HPLC method 1) [1, 6]: 33,575 ppm | p-chloroaniline (ppm, HPLC method 1) [1, 7]: 51,656 ppm

N=C(NCCCCCCNC(=N)NC(=N)Nc1ccc(Cl)cc1)NC(=N)Nc1ccc(Cl)cc1 [Replicate C]
p-chloroaniline (ppm, HPLC method 1) [1, 8]: 33657 ppm | p-chloroaniline (ppm, HPLC method 1) [1, 9]: 45243 ppm

N=C(NCCCCCCNC(=N)NC(=N)Nc1ccc(Cl)cc1)NC(=N)Nc1ccc(Cl)cc1 [Replicate D]
p-chloroaniline (ppm, HPLC method 1) [1, 8]: 33153 ppm | p-chloroaniline (ppm, HPLC method 1) [1, 9]: 46753 ppm

N=C(NCCCCCCNC(=N)NC(=N)Nc1ccc(Cl)cc1)NC(=N)Nc1ccc(Cl)cc1 [Replicate E]
p-chloroaniline (ppm, HPLC method 1) [1, 8]: 33568 ppm | p-chloroaniline (ppm, HPLC method 1) [1, 9]: 47577 ppm

N=C(NCCCCCCNC(=N)NC(=N)Nc1ccc(Cl)cc1)NC(=N)Nc1ccc(Cl)cc1.O=C(O)[C@H](O)[C@@H](O)[C@H](O)[C@H](O)CO.O=C(O)[C@H](O)[C@@H](O)[C@H](O)[C@H](O)CO [chlorhexidine digluconate]
p-chloroaniline, Increasing (%) ([2]; 3 months at 15° C.): 433% | p-chloroaniline, Increasing (%) ([2]; 3 months at 25° C.): 1533% | p-chloroaniline, Increasing (%) ([2]; 3 months at 40° C.): 4233% | p-chloroaniline (ppm, Colorimetry), Initial ([2]; sample to be stored at 15° C.): 3 ppm | p-chloroaniline (ppm, Colorimetry), Initial ([2]; sample to be stored at 25° C.): 3 ppm | p-chloroaniline (ppm, Colorimetry), Initial ([2]; sample to be stored at 40° C.): 3 ppm | p-chloroaniline (ppm, Colorimetry), 3 months ([2]; storage at 15° C.): 16 ppm | p-chloroaniline (ppm, Colorimetry), 3 months ([2]; storage at 25° C.): 49 ppm | p-chloroaniline (ppm, Colorimetry), 3 months ([2]; storage at 40° C.): 130 ppm

[H]/N=C(\N/C(=N/[H])NCCCCCCNC(=N)NC(=N)Nc1ccc(Cl)cc1)Nc1ccc(Cl)cc1 [chlorhexidine, 1-[amino-[6-[amino-[amino-(4-chlorophenyl)aminomethylidene]aminomethylidene]amino-hexylimino]methyl]imino-N-(4-chlorophenyl)-methanediamine]
linear regression line, degradation rate towards p-chloroaniline [1]: 2170x-356 | p-chloroaniline (ppm, HPLC method 1), Average ([1]; average of Replicates A and B, 1 day, 0.54% total impurities sample): 1,741 ppm | p-chloroaniline (ppm, HPLC method 1), Average ([1]; average of Replicates A and B, 2 days, 0.54% total impurities sample): 3,483 ppm | p-chloroaniline (ppm, HPLC method 1), Average ([1]; average of Replicates A and B, 4 days, 0.54% total impurities sample): 7,052 ppm | p-chloroaniline (ppm, HPLC method 1), Average ([1]; average of Replicates A and B, 14 days, 0.54% total impurities sample): 33,664 ppm | p-chloroaniline (ppm, HPLC method 1), Average ([1]; average of Replicates A and B, 25 days, 0.54% total impurities sample): 52,109 ppm | p-chloroaniline (ppm, HPLC method 1), Average ([1]; average of Replicates C, D and E, 12 days, 2.64% total impurities sample): 33459 ppm | p-chloroaniline (ppm, HPLC method 1), Average ([1]; average of Replicates C, D and E, 19 days, 2.64% total impurities sample): 46524 ppm
